Data as given in patent US4107202A, “Substituted 4,4'-biphenylylene bis(2-thioureylene)di-naphthalenetrisulfonic acids and salts thereof” (American Cyanamid Company, priority 1977, dated 1978).
Structures can show the parent of a compound that is named as a salt.

What was measured:
complement system = details: reported in literature; cited from earlier work
[1] = The New England Journal of Medicine, 286, 808-812 (1972); cited from earlier work
shunt pathway = assay: Test, Code 036 (C-Shunt inhibitor): lysis of fragile human erythrocytes in autologous serum via the shunt pathway activated by cobra venom factor; format: cell-based; design: key: Negative; details: activity in wells, two-fold serial dilution assay
whole complement = assay: Complement Level Reduction Test: whole complement in serum of dosed guinea pigs, capillary tube assay; format: in vivo, guinea pig; details: 200 mg/kg
From the text: An active inhibitor protects C2 from C1 and C4; (ii) Test, Code 035 (C3-C9 inhibitor) -- This test determines the ability of the late components of human complement (C3-C9) to lyse EAC 142 in the presence of appropriate dilutions of the test compound. An active inhibitor protects EAC 142 from lysis by C3-C9; (iii) Test, Code 036 (C-Shunt inhibitor) -- In this test human erythrocytes rendered fragile are lysed in autologous serum via the shunt pathway activated by cobra venom factor in the presence of appropriate dilutions of the test compound. Inhibition of the shunt pathway results in failure of lysis; (iv) Forssman Vasculitis Test -- Here, the well known complement dependent lesion, Forssman vasculitis, is produced in guinea pigs by intradermal injection of rabbit anti-Forssman antiserum. The lesion is measured in terms of diameter, edema and hemorrhage and the extent to which a combined index of these is inhibited by prior intraperitoneal injection of the test compound at 200 mg/kg is then reported, unless otherwise stated; (v) Forssman Shock Test -- Lethal shock is produced in guinea pigs by an i.v. injection of anti-Forssman antiserum and the harmonic mean death time of treated guinea pigs is compared with that of simultaneous controls; (vi) Complement Level Reduction Test -- In this test, the above dosed guinea pigs, or others, are bled for serum and the complement level is determined in undiluted serum by the capillary tube method of U.S. Pat. No. 3,876,376 and compared to undosed control guinea pigs; and (vii) Cap 50 Test -- Here, appropriate amounts of the test compound are added to a pool of guinea pig serum in vitro, after which the undiluted serum capillary tube assay referred to above is run. The concentration of compound inhibiting 50% is reported.
With reference to Table I, guinea pigs weighing about 300 g were dosed intravenously (i.v.) or intraperitoneally (i.p.) with 200 mg/kg of the test compound dissolved in saline and adjusted to pH 7-8. One hour after dosing, the guinea pigs were decapitated, blood was collected and the serum separated. The serum was tested for whole complement using the capillary tube assay. Percent inhibition was calculated by comparison with simultaneous controls. The results appear in Table I together with results of tests, code 026, 035, 036, Cap 50, % inhibition and Forssman shock.

[2] = system: late components of human complement (C3-C9); assay: Test, Code 035 (C3-C9 inhibitor): lysis of EAC 142 by late components of human complement; format: cell-based; design: key: Negative; details: activity in wells, two-fold serial dilution assay

heparin
complement inhibiting / anticomplementary effect (complement system): anticomplementary effect

Nc1ccc2cc(S(=O)(=O)O)cc(O)c2c1N=Nc1ccc(NC(=O)Nc2ccc(N=Nc3c(N)ccc4cc(S(=O)(=O)O)cc(O)c34)c(S(=O)(=O)O)c2)cc1S(=O)(=O)O [chlorazol fast pink, 3,3'-ureylenebis-[6-(2-amino-8-hydroxy-6-sulfo-1-naphthylazo)]benzenesulfonic acid, tetrasodium salt]
complement inhibiting / anticomplementary effect (complement system): anticomplementary effect

Cc1ccc(C(=O)Nc2ccc(S(=O)(=O)O)c3cc(S(=O)(=O)O)cc(S(=O)(=O)O)c23)cc1NC(=O)c1cccc(NC(=O)Nc2cccc(C(=O)Nc3cc(C(=O)Nc4ccc(S(=O)(=O)O)c5cc(S(=O)(=O)O)cc(S(=O)(=O)O)c45)ccc3C)c2)c1 [Suramin]
complement inhibiting / anticomplementary effect (complement system): competitive inhibitor of the complement system

NC[C@H]1CC[C@H](C(=O)O)CC1 [tranexamic acid]
use in the treatment of hereditary angioneurotic edema [1]: used with success

O=S(=O)(O)c1cc(NC(=S)Nc2ccc(-c3ccc(NC(=S)Nc4cc(S(=O)(=O)O)cc5cc(S(=O)(=O)O)cc(S(=O)(=O)O)c45)cc3S(=O)(=O)O)c(S(=O)(=O)O)c2)c2c(S(=O)(=O)O)cc(S(=O)(=O)O)cc2c1 [8,8'-[(2,2'-Disulfo-4,4'-biphenylylene)bis(2-thioureylene)]di-1,3,6-naphthalenetrisulfonic acid octasodium salt]
Shunt Inhibition 036 Wells (shunt pathway): N | In Vivo Activity (Guinea Pig) % Inhibition (whole complement; intraperitoneal, 30 min): -55% | In Vivo Activity (Guinea Pig) % Inhibition (whole complement; intraperitoneal, 60 min): -55% | In Vivo Activity (Guinea Pig) % Inhibition (whole complement; intraperitoneal, 120 min): -70% | In Vivo Activity (Guinea Pig) % Inhibition (whole complement; intravenous, 2 min): -92% | In Vivo Activity (Guinea Pig) % Inhibition (whole complement; intravenous, 30 min): -46% | In Vivo Activity (Guinea Pig) % Inhibition (whole complement; intravenous, 120 min): -31% | C-Late 035 Wells [2]: N

NCCCCCC(=O)O [epsilon-aminocapronic acid]
use in the treatment of hereditary angioneurotic edema [1]: used with success
